The supplement of paper PMC11061612

Columns and labels:
[1] = system: NCI-H2085 (Non-Small Cell Lung Carcinoma); assay: combination Emax (second highest fraction inhibited in the dose matrix, 72 h); higher = more inhibition; extreme values may be limits of the assay
Summary of the method: (§1)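 Bliss excess equals the observed combination effect minus the expected value EA + EB − EA·EB, where EA and EB are the effects of each agent alone. Combination Emax is the second-highest inhibition within the matrix. Inhibition was scaled from CellTiter-Glo 2.0 luminescence, with 0 set by vehicle wells and 1 by blank wells, after 72 hours of two-drug dosing of cells plated in 1536-well plates.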

[2] = system: HuP-T4 (Pancreatic Carcinoma); assay: as above
Summary of the method: as §1

[3] = system: KYSE-520 (Esophageal Squamous Cell Carcinoma); assay: as above
Summary of the method: as §1

[4] = system: ME-1 (Acute Myeloid Leukemia); assay: as above
Summary of the method: as §1

[5] = system: LB831-BLC (Bladder Carcinoma); assay: as above
Summary of the method: as §1

KELLY (Neuroblastoma) = assay: as above
Summary of the method: as §1

[6] = system: LU-135 (Small Cell Lung Carcinoma); assay: as above
Summary of the method: as §1

[7] = system: HO-1-N-1 (Oral Cavity Carcinoma); assay: as above
Summary of the method: as §1

42-MG-BA (Glioblastoma) = assay: as above
Summary of the method: as §1

[8] = system: HT-1376 (Bladder Carcinoma); assay: as above
Summary of the method: as §1

[9] = system: OVCA420 (Ovarian Carcinoma); assay: as above
Summary of the method: as §1

HOS (Osteosarcoma) [10] = assay: as above
Summary of the method: as §1

AGS (Gastric Carcinoma) = assay: as above
Summary of the method: as §1

[11] = system: LNCaP-Clone-FGC (Prostate Carcinoma); assay: as above
Summary of the method: as §1

[12] = system: RC-K8 (B-Cell Non-Hodgkin's Lymphoma); assay: Bliss excess, mean over the matrix (fraction); higher = more synergy
Summary of the method: as §1

[13] = system: NCI-H2085 (Non-Small Cell Lung Carcinoma); assay: as above
Summary of the method: as §1

[14] = system: RO82-W-1 (Thyroid Gland Carcinoma); assay: as above
Summary of the method: as §1

NOS-1 (Osteosarcoma) = assay: as above
Summary of the method: as §1

HOS (Osteosarcoma) [15] = assay: as above
Summary of the method: as §1

[16] = system: CCRF-CEM (T-Lymphoblastic Leukemia); assay: as above
Summary of the method: as §1

| Compound | combination Emax [1] | combination Emax [2] | combination Emax [3] | combination Emax [4] | combination Emax [5] | combination Emax (KELLY (Neuroblastoma)) | combination Emax [6] | combination Emax [7] | combination Emax (42-MG-BA (Glioblastoma)) | combination Emax [8] | combination Emax [9] | combination Emax (HOS (Osteosarcoma) [10]) | combination Emax (AGS (Gastric Carcinoma)) | combination Emax [11] | Bliss excess [12] | Bliss excess [13] | Bliss excess [14] | Bliss excess (NOS-1 (Osteosarcoma)) | Bliss excess (HOS (Osteosarcoma) [15]) | Bliss excess [16] |
| --- | --- | --- | --- | --- | --- | --- | --- | --- | --- | --- | --- | --- | --- | --- | --- | --- | --- | --- | --- | --- |
| NC1(C(=O)N[C@@H](CCO)c2ccc(Cl)cc2)CCN(c2ncnc3[nH]ccc23)CC1 [Capivasertib] + COc1nnc2ccc(N3CCC(c4ccc(OCCN5CCN(C)C(=O)[C@H]5C)cc4)CC3)nn12 [AZD5153] (first compound max 10 µM, 7x7, partner max 1 µM) | 0.6 | 0.442 | 0.668 | 0.402 | 0.608 | 0.336 | 0.969 | 0.887 | 0.813 | 0.108 | 0.762 | 0.632 | 0.944 | 0.993 | -0.0101 | 0.044 | -0.0585 | 0.0423 | 0.041 | 0.058 |
| CC(=O)c1c(C)c2cnc(Nc3ccc(N4CCNCC4)cn3)nc2n(C2CCCC2)c1=O [Palbociclib] + CN(CC[C@H](CSC1=CC=CC=C1)NC2=C(C=C(C=C2)S(=O)(=O)NC(=O)C3=CC=C(C=C3)N4CCC(CC4)[C@H](C5=CC=CC=C5C6=CC=C(C=C6)Cl)O)S(=O)(=O)C(F)(F)F)CCO [AZD4320] (first compound max 10 µM, 7x7, partner max 1 µM) |  | 0.208 | 0.477 |  |  |  | 1 |  | 0.511 |  | 0.21 |  | 0.823 | 0.534 | 0.0351 |  |  | 0.0414 |  |  |
| COc1nnc2ccc(N3CCC(c4ccc(OCCN5CCN(C)C(=O)[C@H]5C)cc4)CC3)nn12 [AZD5153] + CN(CC[C@H](CSC1=CC=CC=C1)NC2=C(C=C(C=C2)S(=O)(=O)NC(=O)C3=CC=C(C=C3)N4CCC(CC4)[C@H](C5=CC=CC=C5C6=CC=C(C=C6)Cl)O)S(=O)(=O)C(F)(F)F)CCO [AZD4320] (first compound max 1 µM, 7x7, partner max 1 µM) |  | 0.479 | 0.58 |  |  |  | 1 |  | 0.868 |  | 0.813 |  | 0.918 | 0.747 | -0.0145 |  |  | 0.044 |  |  |
| C[C@@H](c1ccc2nccn2c1)n1nnc2ncc(-c3cnn(C)c3)nc21 [Savolitinib] + CN(CC[C@H](CSC1=CC=CC=C1)NC2=C(C=C(C=C2)S(=O)(=O)NC(=O)C3=CC=C(C=C3)N4CCC(CC4)[C@H](C5=CC=CC=C5C6=CC=C(C=C6)Cl)O)S(=O)(=O)C(F)(F)F)CCO [AZD4320] (first compound max 1 µM, 7x7, partner max 1 µM) |  | 0.124 | 0.2 |  |  |  | 1 |  | 0.222 |  | 0.192 |  | 0.377 | 0.258 | -0.0478 |  |  | -0.0137 |  |  |
| Cc1c2c(nn1C)CSCc1cc(n(C)n1)CSc1cc(c3ccccc3c1)OCCCc1c(C(=O)O)n(C)c3c-2c(Cl)ccc13 [AZD5991] + C=CCn1c(=O)c2cnc(Nc3ccc(N4CCN(C)CC4)cc3)nc2n1-c1cccc(C(C)(C)O)n1 [AZD1775] (first compound max 1 µM, partner max 1 µM) | 0.626 | 0.551 |  | 0.793 | 0.519 | 1 | 0.581 | 0.812 | 0.986 | 0.459 | 0.399 | 0.432 | 0.781 | 0.769 | -0.0294 | -0.0165 | -0.0197 |  | -0.0274 | -0.0011 |
| C=CCn1c(=O)c2cnc(Nc3ccc(N4CCN(C)CC4)cc3)nc2n1-c1cccc(C(C)(C)O)n1 [AZD1775] + C[C@@H]1COCCN1C2=NC(=NC(=C2)C3(CC3)[S@](=N)(=O)C)C4=C5C=CNC5=NC=C4 [AZD6738] (first compound max 1 µM, partner max 10 µM) | 0.912 | 0.521 | 0.661 | 0.51 | 0.72 | 1 | 0.751 | 0.883 | 0.763 | 0.67 | 0.518 | 0.911 | 0.848 | 0.787 |  | 0.0147 | -0.0916 | 0.0735 | 0.106 | 0.0391 |
| Cc1cc2ncnn2cc1Nc1ncc2c(n1)n(C1CCOCC1)c(=O)n2C [AZD7648] + CN(C)CCCOc1ccc(-c2ccc3ncc4c(c3c2)n(C2CCOCC2)c(=O)n4C)cn1 [AZD0156] (first compound max 10 µM, 7x7, partner max 1 µM) | 0.234 | 0.261 | 0.305 | 0.213 | 0.243 | 0.878 | 0.172 | 0.3 | 0.398 | 0.2 | 0.262 | 0.273 | 0.397 | 0.546 |  | -0.0343 | -0.129 | 0.0258 | -0.0172 | -0.003 |
| Cc1cc2ncnn2cc1Nc1ncc2c(n1)n(C1CCOCC1)c(=O)n2C [AZD7648] + C[C@@H]1COCCN1C2=NC(=NC(=C2)C3(CC3)[S@](=N)(=O)C)C4=C5C=CNC5=NC=C4 [AZD6738] (first compound max 10 µM, 7x7, partner max 10 µM) | 0.608 | 0.358 | 0.538 | 0.378 | 0.3 | 0.955 | 0.552 | 0.706 | 0.692 | 0.546 | 0.509 | 0.691 | 0.682 | 0.703 |  | 0.0007 | 0.0654 | 0.0761 | 0.0345 | 0.0206 |
